Laboratory results published in patent US20080255244A1, “CaM Kinase II Inhibitor Improves Retinoic Acid Therapy and Inhibits the Proliferation of Myeloid Leukemia Cells” (Fred Hutchinson Cancer Research Center, priority 2007, published 2008).

Columns and labels:
[1] = tested on: autophosphorylated CaMKIIγ in K562 cells; assay: Western blot of CaMKIIγ autophosphorylation in K562 cells; format: cell-based, human; conditions: gleevec 5 uM, ATRA five days
Protocol: FIG. 9. Terminal differentiation/apoptosis of myeloid leukemia cells is associated with decreased CaMKIIγ activation. (A) Lysates from the HL60, NB4 and U937 myeloid cell lines treated with ATRA (1 μM) for the indicated period of time were subjected to Western blots. (B) Lysates from the indicated myeloid cell lines treated for five days with the indicated concentration of ATRA were subjected to Western blots. (C) Lysates from HL60 cells treated with TPA (0.1 μM) for the indicated time were subjected to Western blots. (D) Lysates from NB4 cells treated with arsenic trioxide (1 uM) for the indicated time were subjected to Western blots.
FIG. 10. Inhibiting bcr-abl activity/expression inhibits CaMKIIγ activation. (A) Lysates from K562 cells undergoing growth arrest following treatment with gleevec (5 uM) for the indicated times were subjected to Western blots. (B) Lysates from TonB210.1 cells depleted of doxycycline for the indicated period of time were subjected to Western blots. (C) IL-3 dependent TonB210.1 cells were deprived of IL-3 for 24 hours (lane 1). The cells were then treated with the indicated compounds simultaneously with the addition of doxycycline (lanes 2-8). After 24 hours cell lysates were harvested and subjected to Western blots with the indicated CaMKII antibodies. (D) K562 cells were cultured for 48 hours with the indicated chemical inhibitors of specific signal transduction pathways. Cell lysates were harvested and subjected to Western blot analysis.
FIG. 12. CaMKII regulates multiple signal transduction pathways in myeloid cells. (A,B) Lysates from K562 cells cultured for the indicated time in KN93 were subjected to Western blots. (C) The K562 cells transduced as described in Materials and Methods with either (i) the doxycycline (DOX) inducible expression vector/transactivator harboring the full length, Lys^43 mutated, kinase dead CaMKIIγ (kdCaMKIIγ (Tet-on)) or (ii) the CaMKII shRNA generating plasmids, were cultured in liquid suspension in the presence or absence of DOX as indicated, and cell counts obtained after 48 hours. (D) Lysates from K562 cells transduced with the indicated vectors were subjected to Western blots utilizing the indicated antibodies. For lanes 2 and 4 doxycycline (DOX) treatment was for two days.
Antibodies and Western blots. Protein extracts, immunoprecipitations and Western blots were performed as previously detailed (Si J, Collins S J. IL-3-induced enhancement of retinoic acid receptor activity is mediated through Stat5, which physically associates with retinoic acid receptors in an IL-3-dependent manner. Blood 100: 4401-9 (2002)). Antibodies against CaMKI, CaMKIIγ, CaMKIV, c-myc, Stat3, Stat5, calmodulin, as well as the phosphospecific CaMKII (T286, 287) and phosphospecific CaMKI (T177) antibodies were from Santa Cruz Biotechnology. Antibodies against phospho-Stat1 (Ser727), phospho-Stat3 (Ser727 and Tyr 705), phospho-Stat5 (Tyr 694), phospho-p44/42 MAP kinase (Thr202/Tyr 204), p44/42 MAP kinase, phospho-p38 MAP kinase (Thr 180/Tyr 182), phospho-GSK3β (Ser9) were from Cell Signaling Technology. Antibodies against Stat1, GSK3β, β-catenin, PP2Ac, and cyclin D1 were from BD Biosciences.

[2] = tested on: RAR transcriptional activity in HL60 cells; assay: RARE-driven luciferase reporter in HL60 cells; format: cell-based, human; conditions: KN62 5 uM, KN93 5 uM, ATRA 1 uM, six hours
Protocol: FIG. 1. CaM kinase isoform expression in hematopoietic cells. (A) The activity of an ATRA-responsive luciferase reporter (βRARE-tk-Luc, 25 μg) was assessed in electroporated HL60 cells six hours after treatment with the indicated concentrations of ionomycin and ATRA. (B) The activity of the luciferase reporter (βRARE-tk-Luc, 25 μg) was assessed in HL60 six hours after treatment with KN62 (5 uM), KN93 (5 uM) and ATRA (1 uM). (C) Western blots were performed utilizing the indicated antibodies. F9 (column 6) is a mouse embryonal carcinoma cell line. BaF3 (column 7) is a cultured pre-B cell line. BM cells (column 8) are kit-ligand dependent normal murine hematopoietic precursors. PT67 murine fibroblasts individually transduced with either rat CaMKIIα, human CaMKIα or human CaMKIV (column 9) together with brain lysates (column 1) serve as positive controls for the respective antibodies. (D) CaMK assays were performed on HL-60 cell lysates immunoprecipitated with the indicated antibodies.
Transient transfections and luciferase assays. Murine PT67 fibroblasts were transfected utilizing calcium phosphate precipitation. All hematopoietic cell lines were transiently transfected by electroporation as previously detailed (Johnson, B. et al., Molecular and Cellular Biology 19:3372-3382 (1999)). In the transient transfections the LXSN vector (M28248) served as the expression vector for the wild type and site-directed mutagenized CaMKII and RARα coding region cDNAs. Human cDNA homologous to the coding region of rat CaMKIINα, a CaMKII inhibitory protein, was obtained by RT-PCR from HL60 RNA and cloned into the LXSN vector. The RA-responsive luciferase reporter harbors the RARE from the RARβ2 promoter as previously detailed (Si, J., and Collins, S. J., Blood 100:4401-4409 (2002)). The PON838 plasmid, a β-galactosidase reporter driven by the β-actin promoter, was used as an internal control to determine transfection efficiency for calculating relative luciferase activity.

[3] = tested on: Stat3 Ser727 phosphorylation in TonB210 cells; assay: bcr-abl induced Stat3 Ser727 phosphorylation in TonB210.1 cells (Western blot); format: cell-based; conditions: compound added immediately prior to doxycycline, 24 hours
Protocol: FIG. 13. Stat3 is directly phosphorylated and activated by CaMKIIγ at Ser727. (A, i). Cell lysates from the indicated human leukemia cell lines were subjected to Western blots utilizing the indicated Stat3 antibodies. ii). Cell lysates from the same primary AML samples depicted in FIG. 1B were subjected to Western blots utilizing the indicated Stat3 antibodies. B). The IL-3 dependent TonB210.1 cells were deprived of IL-3 for 24 hours. The cells were then treated with the indicated compounds immediately prior to the addition of doxycycline. After an additional 24 hours cell lysates were harvested and subjected to Western blots with the indicated Stat3 antibodies. C). K562 cells were electroporated with a luciferase reporter driven by a Stat3 response element. The indicated concentrations of KN93 and the Stat 3 inhibitor, cucurbitacin I, were added and relative luciferase activity determined on cell lysates following 48 hours of culture. D, i) K562 cell lysates were immunoprecipitated with control IgG or a Stat3 antibody. The immunoprecipitates were then subjected to Western blot analysis with the indicated antibodies. ii,) A bacterial—expressed GST-Stat3 fusion protein was incubated in vitro with CaMKIIγ that had been immunoprecipitated from HL60 cells. Western blots were then performed on the reaction mixtures utilizing the indicated Stat3 antibodies. iii,). […]

SMILES	activated, autophosphorylated CaMKIIγ level [1]	RAR transcriptional activity (βRARE-tk-Luc reporter) [2]	bcr-abl induced Stat3 Ser727 phosphorylation [3]
CC1=C(/C=C/C(C)=C/C=C/C(C)=C/C(=O)O)C(C)(C)CCC1 [ATRA, All-trans retinoic acid]	did not exhibit any decrease	–	–
CN([C@@H](Cc1ccc(OS(=O)(=O)c2cccc3cnccc23)cc1)C(=O)N1CCN(c2ccccc2)CC1)S(=O)(=O)c1cccc2cnccc12 [KN-62]	–	enhance	blocked
COc1ccc(S(=O)(=O)N(CCO)c2ccccc2CN(C)C/C=C/c2ccc(Cl)cc2)cc1 [KN-93]	time dependent reduction	enhance	blocked
